Assay results taken from patent US20250026724A1, “(1,4,5-TRISUBSTITUTED 1H-PYRAZOL-3-YL)OXY-2-ALKYLTHIOALKYL ACIDS AND -ALKYL ACID DERIVATIVES, SALTS THEREOF AND USE THEREOF AS ACTIVE HERBICIDAL INGREDIENTS” (BAYER AKTIENGESELLSCHAFT, priority 2021, published 2025).

Tests used:
Experiment in all cases: Post-emergence herbicidal action, greenhouse pot trial
Assay type in all cases: in vivo
Bassia scoparia (KCHSC) = conditions: for Post-emergence effect at 20 g/ha against KCHSC in %: visual rating after about 3 weeks; for pest or weed control at 80 g/ha / pest or weed control at 320 g/ha: Bassia scoparia, 504 h, read-out: Post-emergence effect against KCHSC
Summary of the method: (§1)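 Sandy loam pots, greenhouse; one-leaf stage (2–3 wk after sowing); WP/EC in water, 0.5% additive, 600 l/ha spray volume; ≤320 g/ha; visual score vs untreated at ~3 wk, 0–100%.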

[1] = test system: Alopecurus myosuroides (ALOMY); conditions: visual rating after about 3 weeks
Summary of the method: as §1

Viola tricolor (VIOTR) = conditions: for pest or weed control at 20 g/ha / pest or weed control at 80 g/ha / pest or weed control at 320 g/ha: Viola tricolor, 504 h, read-out: Post-emergence effect against VIOTR
Summary of the method: as §1

[2] = test system: Digitaria sanguinalis (DIGSA); conditions: visual rating after about 3 weeks; for pest or weed control at 320 g/ha: Digitaria sanguinalis, 504 h, read-out: Post-emergence effect at 320 g/ha against DIGSA in %
Summary of the method: as §1

Lolium rigidum (LOLRI) = conditions: visual rating after about 3 weeks; for pest or weed control at 320 g/ha: Lolium rigidum, 504 h, read-out: Post-emergence effect at 320 g/ha against LOLRI in %
Summary of the method: as §1

Avena fatua (AVEFA) = conditions: visual rating after about 3 weeks; for pest or weed control at 320 g/ha: Avena fatua, 504 h, read-out: Post-emergence effect at 320 g/ha against AVEFA in %
Summary of the method: as §1

Veronica persica (VERPE) = conditions: visual rating after about 3 weeks; for pest or weed control at 320 g/ha: Veronica persica, 504 h, read-out: Post-emergence effect at 320 g/ha against VERPE in %
Summary of the method: as §1

[3] = test system: Echinochloa crus-galli (ECHCG); conditions: visual rating after about 3 weeks; for pest or weed control at 320 g/ha: read-out: Post-emergence effect at 320 g/ha against ECHCG in %
Summary of the method: as §1

Setaria viridis (SETVI) = conditions: visual rating after about 3 weeks; for pest or weed control at 320 g/ha: Setaria viridis, 504 h, read-out: Post-emergence effect at 320 g/ha against SETVI in %
Summary of the method: as §1

[4] = test system: Matricaria inodora (MATIN); conditions: Tripleurospermum inodorum, 504 h, visual rating after about 3 weeks; for pest or weed control at 80 g/ha: read-out: Post-emergence effect at 80 g/ha against MATIN in %; for pest or weed control at 320 g/ha: read-out: Post-emergence effect at 320 g/ha against MATIN in %
Summary of the method: as §1

[5] = test system: Abutilon theophrasti (ABUTH); conditions: visual rating after about 3 weeks; for pest or weed control at 80 g/ha / pest or weed control at 320 g/ha: Abutilon theophrasti, 504 h; for pest or weed control at 80 g/ha: read-out: Post-emergence effect at 80 g/ha against ABUTH in %; for pest or weed control at 320 g/ha: read-out: Post-emergence effect at 320 g/ha against ABUTH in %
Summary of the method: as §1

[6] = test system: Pharbitis purpurea (PHBPU); conditions: visual rating after about 3 weeks; for pest or weed control at 80 g/ha / pest or weed control at 320 g/ha: Ipomoea purpurea, 504 h; for pest or weed control at 80 g/ha: read-out: Post-emergence effect at 80 g/ha against PHBPU in %; for pest or weed control at 320 g/ha: read-out: Post-emergence effect at 320 g/ha against PHBPU in %
Summary of the method: as §1

[7] = test system: Polygonum convolvulus (POLCO); conditions: Fallopia convolvulus, 504 h, visual rating after about 3 weeks; for pest or weed control at 80 g/ha: read-out: Post-emergence effect at 80 g/ha against POLCO in %; for pest or weed control at 320 g/ha: read-out: Post-emergence effect at 320 g/ha against POLCO in %
Summary of the method: as §1

[8] = test system: Amaranthus retroflexus (AMARE); conditions: visual rating after about 3 weeks; for pest or weed control at 80 g/ha / pest or weed control at 320 g/ha: Amaranthus retroflexus, 504 h; for pest or weed control at 80 g/ha: read-out: Post-emergence effect at 80 g/ha against AMARE in %; for pest or weed control at 320 g/ha: read-out: Post-emergence effect at 320 g/ha against AMARE in %
Summary of the method: as §1

[9] = Echinochloa crus-galli, 504 h, 320 g/ha

| SMILES | pest or weed control at 80 g/ha (Bassia scoparia (KCHSC)) [%] | pest or weed control at 320 g/ha (Bassia scoparia (KCHSC)) [%] | Post-emergence effect at 80 g/ha against DIGSA in % [2] [%] | pest or weed control at 320 g/ha (Avena fatua (AVEFA)) [%] | pest or weed control at 320 g/ha (Veronica persica (VERPE)) [%] | pest or weed control at 320 g/ha (Setaria viridis (SETVI)) [%] | pest or weed control at 20 g/ha (Viola tricolor (VIOTR)) [%] | pest or weed control at 80 g/ha (Viola tricolor (VIOTR)) [%] | pest or weed control at 320 g/ha (Viola tricolor (VIOTR); 320 g/ha) [%] | pest or weed control at 320 g/ha ([2]; 320 g/ha) [%] | pest or weed control at 80 g/ha [4] [%] | pest or weed control at 320 g/ha [4] [%] | pest or weed control at 80 g/ha [5] [%] | pest or weed control at 320 g/ha [5] [%] | pest or weed control at 320 g/ha [6] [%] | pest or weed control at 80 g/ha [7] [%] | pest or weed control at 320 g/ha [7] [%] | pest or weed control at 320 g/ha [3, 9] [%] | pest or weed control at 80 g/ha [8] [%] | pest or weed control at 320 g/ha [8] [%] | other results |
| --- | --- | --- | --- | --- | --- | --- | --- | --- | --- | --- | --- | --- | --- | --- | --- | --- | --- | --- | --- | --- | --- |
| CCOC(=O)C(Oc1nn(-c2ccccc2F)c(-c2ccc(F)nc2)c1Br)SC (single isomer, unassigned) [Example I-40] | 90 | 90 | 90 | 90 | 80 | – | – | – | – | – | – | – | – | – | – | – | – | – | – | – | Post-emergence effect at 20 g/ha against KCHSC in % (Bassia scoparia (KCHSC)): 80%; Post-emergence effect at 20 g/ha against ALOMY in % ([1]; 20 g/ha): 80%; Post-emergence effect at 80 g/ha against ALOMY in % ([1]; 80 g/ha): 80%; Post-emergence effect at 320 g/ha against ALOMY in % ([1]; 320 g/ha): 80%; Post-emergence effect against VIOTR (Viola tricolor (VIOTR); 320 g/ha): 80%; Post-emergence action at 20 g/ha against DIGSA in % ([2]; 20 g/ha): 90%; Post-emergence effect at 320 g/ha against DIGSA in % ([2]; 320 g/ha): 90%; Post-emergence effect at 20 g/ha against LOLRI in % (Lolium rigidum (LOLRI); 20 g/ha): 80%; Post-emergence effect at 80 g/ha against LOLRI in % (Lolium rigidum (LOLRI); 80 g/ha): 80%; Post-emergence effect at 320 g/ha against LOLRI in % (Lolium rigidum (LOLRI); 320 g/ha): 90%; Post-emergence effect at 20 g/ha against AVEFA in % (Avena fatua (AVEFA); 20 g/ha): 80%; Post-emergence effect at 80 g/ha against AVEFA in % (Avena fatua (AVEFA); 80 g/ha): 90%; Post-emergence effect at 20 g/ha against VERPE in % (Veronica persica (VERPE); 20 g/ha): 80%; Post-emergence effect at 80 g/ha against VERPE in % (Veronica persica (VERPE)): 80%; Post-emergence effect at 20 g/ha against ECHCG in % ([3]; 20 g/ha): 80%; Post-emergence effect at 80 g/ha against ECHCG in % ([3]; 80 g/ha): 80%; Post-emergence effect at 320 g/ha against ECHCG in % ([3]; 320 g/ha): 90% |
| CCOC(=O)C(Oc1nn(-c2ncccc2F)c(-c2cncc(F)c2)c1Br)SC (stereo not shown) [Example I-39] | 90 | 90 | 80 | 90 | 80 | 90 | 80 | 80 | 90 | 90 | 80 | 90 | 90 | 90 | 90 | 80 | 80 | 90 | 80 | 90 | Post-emergence effect at 20 g/ha against KCHSC in % (Bassia scoparia (KCHSC)): 80%; Post-emergence effect at 80 g/ha against SETVI in % (Setaria viridis (SETVI); 80 g/ha): 90%; Post-emergence action at 20 g/ha against ABUTH in % [5]: 80%; pest or weed control at 80 g/ha [6]: 80%; pest or weed control at 320 g/ha (Lolium rigidum (LOLRI); 320 g/ha): 90%; pest or weed control at 80 g/ha ([3]; Echinochloa crus-galli, 504 h, 80 g/ha, read-out: Post-emergence effect at 80 g/ha against ECHCG in %): 90%; Post-emergence effect at 20 g/ha against AMARE in % [8]: 80% |
| CCOC(=O)C(Oc1nn(-c2ncccc2F)c(-c2cncc(F)c2)c1C1CC1)SC (stereo not shown) [Example I-41] | – | 90 | – | 100 | 80 | 90 | 90 | 90 | 90 | – | 80 | 90 | 90 | 90 | 80 | 80 | 90 | 90 | 90 | 90 | pest or weed control at 320 g/ha ([1]; Alopecurus myosuroides, 504 h, 320 g/ha, read-out: Post-emergence effect at 320 g/ha against ALOMY in %): 80%; Post-emergence action at 20 g/ha against ABUTH in % [5]: 80%; Post-emergence effect at 20 g/ha against AMARE in % [8]: 80% |
| CSC(Oc1nn(-c2ncccc2F)c(-c2cncc(F)c2)c1Br)C(=O)O (stereo not shown) [Example I-42] | 90 | 90 | 80 | 100 | 80 | 90 | 90 | 90 | 90 | 90 | 80 | 90 | 80 | 90 | 90 | 80 | 90 | 90 | 90 | 90 | Post-emergence effect at 20 g/ha against PHBPU in % ([6]; 20 g/ha): 80%; pest or weed control at 80 g/ha [6]: 80%; pest or weed control at 320 g/ha (Lolium rigidum (LOLRI); 320 g/ha): 90% |
| COC(=O)C(Oc1nn(-c2ncccc2F)c(-c2cncc(F)c2)c1C1CC1)SC (stereo not shown) [Example I-66] | – | 90 | – | 80 | 90 | 80 | 90 | 90 | 90 | 80 | 80 | 90 | 80 | 90 | 90 | 80 | 80 | 90 | 90 | 90 | pest or weed control at 320 g/ha (Lolium rigidum (LOLRI); 320 g/ha): 90%; Post-emergence effect at 80 g/ha against VERPE in % (Veronica persica (VERPE)): 90% |
